Converted amounts (≈) assume the structure as drawn. Like-named read-outs stand apart in the source and are kept apart here.
What was measured:
[1] = test system: C. difficile clinical isolates; settings: for MIC: Clostridioides difficile, 24 h, agar dilution; for MIC range: across the twelve clinical isolates tested
gut microbiome [2] = assay: Germ-free humanized mouse study, 16S rRNA gut microbiome analysis; type: in vivo; settings: humanized germ-free mice
Description: Germ-free (GF) mice (six per group) were randomly assigned to IBZ, VAN, FDX, MTZ, or control groups.
An oral gavage of healthy human-derived fecal slurry was given to GF mice. The humanized mice were housed in a sterile biological safety cabinet (BSC) for one week to allow the donor gut microbiome to establish. Humanized mice were then moved to sterile, micro-isolator cages and pellet chow diet was exchanged for a powder chow diet. The humanized mice were then allowed one week to acclimate to the powder chow diet. In addition, a stool sample was obtained prior to the change in diet (baseline 1). At day 14, once the mice acclimated to the powder chow diet, a second baseline stool sample was obtained (baseline 2) and antibiotic treatment was started. The appropriate antibiotics were added to the powder chow diet for 10 days. At day 16, two days after beginning antibiotic treatment, another stool sample was collected (ABX-1). During the 10-day antibiotic treatment, powder chow dishes were refilled each day with fresh chow containing the randomly assigned antibiotic. Stool samples were again collected at day 24 (ABX-2).
To assess antibiotic microbiome effect, 16S rRNA metagenomics was used on stool samples that were collected at day 0 (baseline 1 and baseline 2) and after 2 and […] of treatment with antibiotics. Bulk DNA was extracted from stool samples using the DNeasy® PowerSoil® Kit. The V4 region of the bacterial 16S rRNA gene was sequenced using the Illumina MiSeq and CLC Genomics Workbench. Raw sequencing reads were processed and curated using the mothur (v.1.48.0) software package and the mothur MiSeq SOP was followed as outlined in Schloss, P. D., et al., Introducing mothur: open-source, platform-independent, community supported software for describing and comparing microbial communities. Appl Environ Microbiol, 2009. 75(23): p. 7537-41 (see also, Kozich, J. J., et al., Development of a dual-index sequencing strategy and curation pipeline for analyzing amplicon sequence data on the MiSeq Illumina sequencing platform. Appl Environ Microbiol, 2013. 79(17): p. 5112-20.). All data visualization and statistical analysis were performed using R studio (R Core Team (2023). R: A Language and Environment for Statistical Computing, Vienna, Austria.).

[3] = test system: C. difficile biofilms (strains R20291, CD 630); assay: C. difficile in vitro biofilm studies (MIC, MBIC, CFU/mL, Crystal Violet biomass); type: cell-based; settings: for MBIC: Minimum Biofilm Inhibitory Concentration; for MIC: Clostridioides difficile
Method: A basic flow chart outlining the experimental procedure used in these studies may be seen in FIG. 14. Briefly, C. difficile laboratory strain R20291 was grown in Brain heart infusion-supplemented (BHIS) medium. […] Biofilm formation was established via anaerobic incubation of the cultures at 37° C. for 24 hrs. Early biofilm formation was established at 4 hrs, whereas late biofilm formation was established at 24 hrs, 48 hrs, and 72 hrs. Following biofilm formation, the BHIS medium was removed and replaced with fresh media comprising no antibiotic (control), ibezapolstat (IBZ), Fidaxomicin (FDX), or metronidazole (MTZ). The cultures were then anaerobically incubated for 24 hrs or subjected to time course tests. Biofilm biomass was measured using Crystal Violet staining. […] Data was measured and recorded using Cytation 3 calibrated to read at A570. Data was analyzed by comparing percent growth of antibiotic treated cultures with controls.

gut microbiome [4] = assay: Phase 1 healthy volunteer study, gut microbiome (metagenomics, qPCR); type: in vivo, human; settings: phase 1 healthy volunteer study; treatment over 10 days; shotgun metagenomic sequencing
[5] = test system: bacterial infections in the gut; settings: treatment of bacterial infections in the gut; cited from earlier work
[6] = C. difficile clinical isolate MT 4802
[7] = C. difficile clinical isolate MT 5071
[8] = C. difficile clinical isolate MT 5342
[9] = C. difficile clinical isolate MT 5364
[10] = C. difficile clinical isolate MT 5382
[11] = C. difficile clinical isolate MT 5426
[12] = C. difficile clinical isolate MT 5493
[13] = C. difficile clinical isolate MT 5515
[14] = C. difficile clinical isolate MT 5529
[15] = C. difficile clinical isolate MT 5536
[16] = C. difficile clinical isolate SH 1132
[17] = antibiotic in powder chow 10 days
[18] = antibiotic in powder chow 10 days, compared to Baseline 2 (D14)
[19] = C. diff. strain R20291, read-out: MIC

Question: With `CCc1c(Cl)c(O)c(Cl)c(O)c1C(=O)O[C@H]1[C@H](O)[C@H](OC)[C@H](OC/C2=C\C=C\C[C@H](O)/C(C)=C/[C@H](CC)[C@@H](O[C@@H]3OC(C)(C)[C@@H](OC(=O)C(C)C)[C@H](O)[C@@H]3O)/C(C)=C/C(C)=C/C[C@@H]([C@@H](C)O)OC2=O)O[C@@H]1C` [Fidaxomicin, fidaxomicin] as the compound, how does the MIC [1, 6] read?
Answer: 0.006 µg/mL (≈ 0.00567 µM)

Question: And the MIC [1, 7]?
Answer: 1 µg/mL (≈ 0.945 µM)

Question: And the MIC [1, 8]?
Answer: 1 µg/mL (≈ 0.945 µM)

Question: And the MIC [1, 9]?
Answer: 1 µg/mL (≈ 0.945 µM)

Question: What about the MIC [1, 10] of the same compound?
Answer: 1 µg/mL (≈ 0.945 µM)

Question: What about the MIC [1, 11] of the same compound?
Answer: 0.5 µg/mL (≈ 0.473 µM)

Question: What about the MIC [1, 12] of the same compound?
Answer: 1 µg/mL (≈ 0.945 µM)

Question: What about the MIC [1, 13] of the same compound?
Answer: 2 µg/mL (≈ 1.89 µM)

Question: And the MIC [1, 14]?
Answer: 0.5 µg/mL (≈ 0.473 µM)

Question: What about the MIC [1, 15] of the same compound?
Answer: 1 µg/mL (≈ 0.945 µM)

Question: And the MIC [1, 16]?
Answer: 0.5 µg/mL (≈ 0.473 µM)

Question: What about the MIC range [1] of the same compound?
Answer: <0.03125 to 2 µg/mL

Question: And the “change of Firmicutes (in words)” value (gut microbiome [2]; phylum level)?
Answer: increased

Question: What about the “proportional change of Bacteroidetes (in words)” value (gut microbiome [2]; phylum level) of the same compound?
Answer: proportional increases

Question: And the “Average Change in Metric ± SD, Bray-Curtis Dissim. to Baseline 1” value (gut microbiome [2]; [17])?
Answer: 0.62 ± 0.02

Question: What about the “Average Change in Metric ± SD, Bray-Curtis Dissim. to Baseline 2” value (gut microbiome [2]; [17]) of the same compound?
Answer: 0.39 ± 0.03

Question: And the “Avg. Change in Relative Abundance ± SD, Bacteroidetes” value (gut microbiome [2]; [18])?
Answer: 9.9% ± 2.9%

Question: What about the “Avg. Change in Relative Abundance ± SD, Proteobacteria” value (gut microbiome [2]; [18]) of the same compound?
Answer: 10.2% ± 3%

Question: What about the “Avg. Change in Relative Abundance ± SD, Verrucomicrobia (Akkermansia)” value (gut microbiome [2]; [18]) of the same compound?
Answer: 3.6% ± 2.8%

Question: And the MBIC ([3]; C. diff. strain R20291)?
Answer: 0.125 µg/mL

Question: And the MIC [3, 19]?
Answer: 0.06 µg/mL (≈ 0.0567 µM)

Question: For `Cc1ncc([N+](=O)[O-])n1CCO` [Metronidazole, metronidazole], which MIC [1, 6] is on record?
Answer: 0.25 µg/mL (≈ 1.46 µM)

Question: What about the MIC [1, 7] of the same compound?
Answer: 1 µg/mL (≈ 5.84 µM)

Question: And the MIC [1, 8]?
Answer: 2 µg/mL (≈ 11.7 µM)

Question: What about the MIC [1, 9] of the same compound?
Answer: 2 µg/mL (≈ 11.7 µM)

Question: And the MIC [1, 10]?
Answer: 2 µg/mL (≈ 11.7 µM)

Question: What about the MIC [1, 11] of the same compound?
Answer: 4 µg/mL (≈ 23.4 µM)

Question: What about the MIC [1, 12] of the same compound?
Answer: 2 µg/mL (≈ 11.7 µM)

Question: What about the MIC [1, 13] of the same compound?
Answer: 4 µg/mL (≈ 23.4 µM)

Question: And the MIC [1, 14]?
Answer: 2 µg/mL (≈ 11.7 µM)

Question: What about the MIC [1, 15] of the same compound?
Answer: 0.25 µg/mL (≈ 1.46 µM)

Question: And the MIC [1, 16]?
Answer: 1 µg/mL (≈ 5.84 µM)

Question: What about the MIC range [1] of the same compound?
Answer: 0.25 to 8 µg/mL

Question: And the “relative abundance of Proteobacteria (in words)” value (gut microbiome [2]; phylum level)?
Answer: proportional increases

Question: What about the “relative abundance of Verrucomicrobiota (in words)” value (gut microbiome [2]; phylum level) of the same compound?
Answer: increased

Question: What about the “relative abundance of Proteobacteria (in words)” value (gut microbiome [2]; phylum level, listed as MTZ) of the same compound?
Answer: increased

Question: What about the “Average Change in Metric ± SD, Bray-Curtis Dissim. to Baseline 1” value (gut microbiome [2]; [17]) of the same compound?
Answer: 0.92 ± 0.02

Question: What about the “Average Change in Metric ± SD, Bray-Curtis Dissim. to Baseline 2” value (gut microbiome [2]; [17]) of the same compound?
Answer: 0.92 ± 0.04

Question: And the “Avg. Change in Relative Abundance ± SD, Firmicutes” value (gut microbiome [2]; [18])?
Answer: 36.5% ± 5.1%

Question: What about the “Avg. Change in Relative Abundance ± SD, Proteobacteria” value (gut microbiome [2]; [18]) of the same compound?
Answer: 15.1% ± 3.8%

Question: And the MBIC ([3]; C. diff. strain R20291)?
Answer: 0.5 µg/mL

Question: And the MIC [3, 19]?
Answer: 0.5 µg/mL (≈ 2.92 µM)

Question: And the “Eagle effect in 24-hour biofilms” value ([3]; R20291 or CD 630, at higher concentrations)?
Answer: Eagle effect was observed

Question: With `CN[C@H](CC(C)C)C(=O)N[C@H]1C(=O)N[C@@H](CC(N)=O)C(=O)N[C@H]2C(=O)N[C@H]3C(=O)N[C@H](C(=O)N[C@H](C(=O)O)c4cc(O)cc(O)c4-c4cc3ccc4O)[C@H](O)c3ccc(c(Cl)c3)Oc3cc2cc(c3O[C@@H]2O[C@H](CO)[C@@H](O)[C@H](O)[C@H]2O[C@H]2C[C@](C)(N)[C@H](O)[C@H](C)O2)Oc2ccc(cc2Cl)[C@H]1O` [Vancomycin, vancomycin] as the compound, how does the MIC [1, 6] read?
Answer: 1 µg/mL (≈ 0.69 µM)

Question: What about the MIC ([1]; C. difficile clinical isolate MT 4883) of the same compound?
Answer: 8 µg/mL (≈ 5.52 µM)

Question: And the MIC [1, 7]?
Answer: 4 µg/mL (≈ 2.76 µM)

Question: What about the MIC [1, 8] of the same compound?
Answer: 8 µg/mL (≈ 5.52 µM)

Question: What about the MIC [1, 9] of the same compound?
Answer: 4 µg/mL (≈ 2.76 µM)

Question: And the MIC [1, 10]?
Answer: 1 µg/mL (≈ 0.69 µM)

Question: What about the MIC [1, 11] of the same compound?
Answer: 4 µg/mL (≈ 2.76 µM)

Question: What about the MIC [1, 12] of the same compound?
Answer: 1 µg/mL (≈ 0.69 µM)

Question: What about the MIC [1, 13] of the same compound?
Answer: 4 µg/mL (≈ 2.76 µM)

Question: What about the MIC [1, 14] of the same compound?
Answer: 1 µg/mL (≈ 0.69 µM)

Question: And the MIC [1, 15]?
Answer: 2 µg/mL (≈ 1.38 µM)

Question: And the MIC [1, 16]?
Answer: 4 µg/mL (≈ 2.76 µM)

Question: And the MIC range [1]?
Answer: 1 to 16 µg/mL

Question: What about the “microbiome profile of treated subjects” value (gut microbiome [4]) of the same compound?
Answer: larger proportion of Proteobacteria

Question: What about the “relative abundance of Proteobacteria (in words)” value (gut microbiome [2]; phylum level) of the same compound?
Answer: proportional increases

Question: What about the “relative abundance of Verrucomicrobiota (in words)” value (gut microbiome [2]; phylum level) of the same compound?
Answer: increased

Question: What about the “relative abundance of Proteobacteria (in words)” value (gut microbiome [2]; phylum level, listed as VAN) of the same compound?
Answer: increased

Question: And the “Average Change in Metric ± SD, Bray-Curtis Dissim. to Baseline 1” value (gut microbiome [2]; [17])?
Answer: 0.84 ± 0.02

Question: And the “Average Change in Metric ± SD, Bray-Curtis Dissim. to Baseline 2” value (gut microbiome [2]; [17])?
Answer: 0.75 ± 0.03

Question: What about the “Avg. Change in Relative Abundance ± SD, Proteobacteria” value (gut microbiome [2]; [18]) of the same compound?
Answer: 37.2% ± 2.8%

Question: What about the “C. diff growth (CFU/mL) and biomass at sub-MIC compared to control” value ([3]; 0.4× MIC) of the same compound?
Answer: reduced

Question: What about the “growth in early biofilms at supra-MIC” value ([3]; 40× MIC, after 48 hours of treatment) of the same compound?
Answer: reduced growth

Question: And the MBIC ([3]; C. diff. strain R20291)?
Answer: 1 µg/mL

Question: What about the MIC [3] of the same compound?
Answer: 1 µg/mL (≈ 0.69 µM)

Question: And the “patients having a recurring infection after treatment is discontinued” value [5]?
Answer: 20-25%
